Measured values from patent US20100093064A1, “Metagenomic Functional Selection” (PRESIDENT AND FELLOWS OF HARVARD COLLEGE, priority 2008, published 2010).

How the values were obtained:
E. coli [1] = assay: Kinetic growth / biomass yield analysis in liquid LB-chlor with inhibitor; assay type: cell-based, Escherichia coli; conditions: for Improvement in biomass yield due to selected metagenomic insert: vs E. coli control, at the inhibitor concentration giving 90% reduction of wild type biomass yield, mgFurAc/2-furoic acid, mgSyrAld/syringaldehyde, mgMetCat/4-methylcatechol; for Inhibitor concentration resulting in 90% reduction in growth yield: wild-type/control E. coli, 24 hours of growth at 37° C.
Description: […] DNA library clones conferring tolerance to each of three inhibitors were chosen for further analysis of encoded functional parts from the selected inhibitor plates. For 4-methycatechol, 5 tolerant clones each were chosen from selected mgDNA libraries 1, 3, 4, and 5 (FIG. 2A). For 2-furoic acid, 6-7 tolerant clones each were chosen from selected mgDNA libraries 1, 3 and 4 (FIG. 2A). For syringaldehyde, 10 tolerant clones each were chosen from selected mgDNA libraries 4 and 5 (FIG. 2A). Each colony was grown to saturation (16-18 hours) at 37° C. with shaking in liquid LB medium containing 12.5 μg/mL-chloramphenicol (hereon referred to as LB-chlor). Saturated cultures were diluted 1:40 in fresh LB-chlor and grown to mid-log phase (1-2 hours) at 37° C. with shaking. Log-phase cultures were inoculated (1:40) into LB-chlor containing one of three concentrations of the relevant inhibitor (4-methylcatechol: 0.2, 0.6 and 1 g/L; 2-furoic acid: 0.8, 7.9, 15 g/L; syringaldehyde: 1.55, 1.775 and 2 g/L), with concentrations chosen to sparsely span the range of previously reported inhibitory concentrations of these compounds (J. Zaldivar, L. O. Ingram, Biotechnol Bioeng 66, 203 (1999); J. Zaldivar, A. Martinez, L. O. Ingram, Biotechnol Bioeng 65, 24 (Oct. 5, 1999); J. Zaldivar, A. Martinez, L. O. Ingram, Biotechnol Bioeng 68, 524 (Jun. 5, 2000)). Biomass yield after 24 hours of growth at 37° C. with shaking was determined by end-point turbidity measurements at 600 nm using a Versamax microplate reader (Molecular Devices).
Three mgDNA clones per inhibitor with the highest biomass differential when compared to the E. coli control were chosen for kinetic growth analysis. Growth kinetics were measured at 11 concentrations per inhibitor, evenly spanning the following concentration ranges: 0-1 g/L 4-methylcatechol, 0-1.5 g/L 2-furoic acid, and 0-3 g/L syringaldehyde. Kinetic measurements were done in triplicate for each mgDNA clone and E. coli control by 600 nm measurements every 5 minutes over 24 hours at 37° C. with shaking in a Versamax microplate reader.
To determine whether the observed tolerance in the selected clones was a result of functional parts encoded by mgDNA, fosmids from the 3 kinetically characterized mgDNA clones per inhibitor were extracted using the FosmidMAX DNA Purification Kit (catalog #FMAX046, Epicentre Biotechnologies). Purified fosmids were then retransformed into an electro-competent version of the same control E. coli strain using a standard electroporation protocol. 3 transformant colonies for each of the 3 kinetically characterized mgDNA clones per inhibitor were chosen for a repeat of the inhibitor tolerance kinetic growth analysis (see above). All of the retransformed fosmids for 4-methylcatechol and 2-furoic acid and 2 of the 3 retransformed fosmids for syringaldehyde recapitulated the improved inhibitor tolerance compared to the E. coli control seen for the original mgDNA selected clones. […] Kinetic growth plots for the mgDNA clone with the best improvements in biomass yield at these concentrations per inhibitor are shown in FIG. 4, over a range of inhibitor concentrations. These selected clones were from mgDNA library 3 for 2-furoic acid (mgFurAc), library 4 for syringaldehyde (mgSyrAld), and library 3 for 4-methylcatechol (mgMetCat).

E. coli [2] = assay: Selective inhibitory concentration of lignocellulosic compounds in LB-agar; assay type: cell-based, Escherichia coli; conditions: 48 hours of growth at 37° C., lowest concentration tested which prevented colony formation
Description: The inhibitory concentrations of 14 lignocellulosic compounds in LB-agar (Table 2) were determined for two versions of the E. coli strain used to create the mgDNA libraries—a strain with a control pCC1FOS fosmid insert containing E. coli genomic DNA, and an untransformed strain. […] A range of concentrations for each lignocellulosic compound were tested, based on inhibitory concentrations for E. coli previously reported (1-3).

[3] = system: oral and gut human-associated microbiome isolates; assay: Antibiotic resistance profiling of human-associated microbiome isolates; assay type: cell-based, bacteria isolated from human sputum and fecal samples; conditions: for Microbiome isolates resistant, on average: 1102 oral and gut isolates, antibiotic 20 mg/L in LB
Description: Three sputum samples (oral microbiomes) and two fecal samples (gut microbiomes) were collected from three healthy volunteers at three different sampling times (day 1, 140 and 141), and fresh samples were plated on Luria broth (LB) agar. […]. Cultures were incubated for 16 hours at 37° C. and growth was assayed by absorption at 600 nm.

Structure (SMILES)	Inhibitory Concentration (E. coli [2]) [g/L]	other results
O=C(O)c1ccco1 [2-Furoic acid]	0.80	Improvement in biomass yield due to selected metagenomic insert (E. coli [1]): 6.9 fold; Inhibitor concentration resulting in 90% reduction in growth yield (E. coli [1]): 1.05 g/L
O=C(O)c1ccc(O)cc1 [4-hydrobenzoic acid]	7.90	
O=Cc1ccc(O)cc1 [4-hydroxy-benzaldhehyde]	1.25	
CC(=O)O [Acetic Acid]	5.00	
CCO [Ethanol]	55.00	
O=CO [Formic acid]	1.15	
O=Cc1ccco1 [Furfural]	2.95	
Oc1ccc(O)cc1 [Hydroquinone]	1.85	
CC(=O)CCC(=O)O [Levulinic acid]	3.00	
Cc1ccc(O)c(O)c1 [Methylcatechol, 4-methylcatechol]	0.20	Improvement in biomass yield due to selected metagenomic insert (E. coli [1]): 6.0 fold; Inhibitor concentration resulting in 90% reduction in growth yield (E. coli [1]): 0.33 g/L
COc1cc(C=O)cc(OC)c1O [Syringaldehyde]	1.55	Improvement in biomass yield due to selected metagenomic insert (E. coli [1]): 5.7 fold; Inhibitor concentration resulting in 90% reduction in growth yield (E. coli [1]): 1.33 g/L
COc1cc(C(=O)O)cc(OC)c1O [Syringic acid]	9.55	
COc1cc(C(=O)O)ccc1O [Vanillic acid]	8.08	
COc1cc(C=O)ccc1O [Vanillin]	1.50	
CC1(C)S[C@@H]2[C@H](NC(=O)C(C(=O)O)c3ccccc3)C(=O)N2[C@H]1C(=O)O (some centres unmarked) [carbenicillin]		Microbiome isolates resistant, on average [3]: 39%
O=C(N[C@H](CO)[C@H](O)c1ccc([N+](=O)[O-])cc1)C(Cl)Cl [chloramphenicol]		Microbiome isolates resistant, on average [3]: 7%; Susceptibility of gut microbiome isolates ([3]; gut isolates from all sampling times, 20 mg/L): almost completely susceptible; O3 day 1 isolates resistant ([3]; oral microbiome O3, day 1, 20 mg/L): 87%
O=C(O)c1cn(C2CC2)c2cc(N3CCNCC3)c(F)cc2c1=O [ciprofloxacin]		Microbiome isolates resistant, on average [3]: 26%
C[C@H]1COc2c(N3CCN(C)CC3)c(F)cc3c(=O)c(C(=O)O)cn1c23 [levofloxacin]		Microbiome isolates resistant, on average [3]: 22%
